# Target: SARS-CoV-2 M^pro (Severe acute respiratory syndrome coronavirus 2, UniProt P0DTD1)
# Test: FRET protease enzymatic inhibition assay
# Type: biochemical
# Conditions: for M^pro Inhibition rate at 50 μM: compound at 50 μM, FRET assay; for inhibition at 50 µM: read-out: M^pro Inhibition rate at 50 μM
SMILES,M^pro Inhibition rate at 50 μM,further results
"COc1ccc(-c2cc(=O)c3c(O)c(OC)c(OC)cc3o2)cc1 [Compound 6, Salvigenin]",reduced rates of inhibition,–
"COc1ccc(-c2cc(=O)c3c(O)c(OC)c(O)cc3o2)cc1 [Compound 3, Pectolinarigenin]",reduced rates of inhibition,–
"COc1c(O)cc2oc(-c3ccc(O)cc3)cc(=O)c2c1O [Compound 2, Hispidulin]",reduced rates of inhibition,–
"O=c1cc(-c2ccccc2)oc2cc(O)c(O)c(O)c12 [Compound 8, Baicalein, reference compound]",–,inhibition at 50 µM: 103%
"O=c1cc(-c2ccc(O)cc2)oc2cc(O)c(O)c(O)c12 [Compound 1, Scutellarein]",–,inhibition at 50 µM: 102%
"COc1ccc(-c2cc(=O)c3c(OC)c(O)c(O)cc3o2)cc1 [Compound 5, 6,7-dihydroxy-5-methoxy-2-(4-methoxyphenyl) chromone]",–,IC50: 16.7 ± 2.09 µM
"COc1ccc(-c2cc(=O)c3c(OC)c(OC)c(OC)cc3o2)cc1 [Compound 7, 5,6,7,4'-tetramethoxyflavone]",reduced rates of inhibition,–

# Source: PMC8907111 (Biochemical and Biophysical Research Communications, 2022)
